For test [1], the system named is Cabbage Looper (Trichoplusia ni). As to the kind of experiment: Bioassays on CL, 128-well diet tray assay. Type of test: in vivo. The following applies: Trichoplusia ni, 168 h; 50 μg/cm^2 on artificial diet, second instar larvae, five to seven days; read-out: CL % Control (or Mortality) rating. As to the method: Bioassays on CL were conducted using a 128-well diet tray assay.
One to five second instar CL larvae were placed in each well (3 mL) of the diet tray that had been previously filled with 1 mL of artificial diet to which 50 μg/cm^2 of the test molecule (dissolved in 50 μL of 90:10 acetone-water mixture) had been applied (to each of eight wells) and then allowed to dry. Trays were covered with a clear self-adhesive cover and held at 25° C., 14:10 light-dark for five to seven days. Percent mortality was recorded for the larvae in each well; activity in the eight wells was then averaged. The results are indicated in the table entitled “Table ABC: Biological Results” (See Table Section).
(§1) Bioassays on BAW and CL were conducted according to the procedures outlined in Example A: Bioassays on Beet Armyworm (“BAW”) and Cabbage Looper (“CL”) using the indicated concentrations.

The subject of test [2] is Beet Armyworm (Spodoptera exigua). As to the kind of experiment: Bioassays on BAW, 128-well diet tray assay. Type of test: in vivo. The conditions noted are these: Spodoptera exigua, 168 h; 50 μg/cm^2 on artificial diet, second instar larvae, five to seven days; read-out: BAW % Control (or Mortality) rating. As to the method: Bioassays on BAW were conducted using a 128-well diet tray assay. One to five second instar BAW larvae were placed in each well (3 mL) of the diet tray that had been previously filled with 1 mL of artificial diet to which 50 μg/cm^2 of the test molecule (dissolved in 50 μL of 90:10 acetone-water mixture) had been applied (to each of eight wells) and then allowed to dry. Trays were covered with a clear self-adhesive cover and held at 25° C., 14:10 light-dark for five to seven days. Percent mortality was recorded for the larvae in each well; activity in the eight wells was then averaged. The results are indicated in the table entitled “Table ABC: Biological Results” (See Table Section).
as §1

Molecules are shown by their SMILES.

As a reminder, the mortality is the percentage killed. Consider `CC(C)CS(=O)(=O)C[C@@H](C)NC(=O)c1ccc(/C=C/C(c2cc(Cl)c(Cl)c(Cl)c2)C(F)(F)F)cc1C(F)(F)F` (stereo partly drawn) [F81, N—((R)-1-(Isobutylsulfonyl)propan-2-yl)-4-((E)-4,4,4-trifluoro-3-(3,4,5-trichlorophenyl)but-1-en-1-yl)-2-(trifluoromethyl)benzamide], for which the mortality at 50 µg/cm2 in test [1] and in test [2] was 50 to 100% throughout.

As for `CC(C)[S+]([O-])C[C@@H](C)NC(=O)c1ccc(/C=C/C(c2cc(Cl)c(Cl)c(Cl)c2)C(F)(F)F)cc1C(F)(F)F` (stereo partly drawn) [F82, N-((2R)-1-(Isopropylsulfinyl)propan-2-yl)-4-((E)-4,4,4-trifluoro-3-(3,4,5-trichlorophenyl)but-1-en-1-yl)-2-(trifluoromethyl)benzamide], the mortality at 50 µg/cm2 in test [1] and in test [2] was 50 to 100% each time.

For `O=C(NCC1(SCC(F)(F)F)COC1)c1ccc(/C=C/C(c2cc(Cl)c(Cl)c(Cl)c2)C(F)(F)F)cc1C(F)(F)F` (stereo not shown) [F83, (E)-4-(4,4,4-Trifluoro-3-(3,4,5-trichlorophenyl)but-1-en-1-yl)-N-((3-((2,2,2-trifluoroethyl)thio)oxetan-3-yl)methyl)-2-(trifluoromethyl)benzamide], the mortality at 50 µg/cm2 in test [1] and in test [2] was 50 to 100% in each case.

On to `C[C@H](CS(=O)(=O)CC(F)(F)F)NC(=O)c1ccc(/C=C/C(c2cc(Cl)c(Cl)c(Cl)c2)C(C)(F)F)cc1C(F)(F)F` (stereo partly drawn) [F84, 4-((E)-4,4-Difluoro-3-(3,4,5-trichlorophenyl)pent-1-en-1-yl)-N—((R)-1-((2,2,2-trifluoroethyl)sulfonyl)propan-2-yl)-2-(trifluoromethyl)benzamide], for which the mortality at 50 µg/cm2 in test [1] and in test [2] was 50 to 100% throughout.

As to `O=C(NCC1([S+]([O-])CC(F)(F)F)COC1)c1ccc(/C=C/C(c2cc(Cl)c(Cl)c(Cl)c2)C(F)(F)F)cc1C(F)(F)F` (stereo not shown) [F107, (E)-4-(4,4,4-Trifluoro-3-(3,4,5-trichlorophenyl)but-1-en-1-yl)-N-((3-((2,2,2-trifluoroethyl)sulfinyl)oxetan-3-yl)methyl)-2-(trifluoromethyl)benzamide], the mortality at 50 µg/cm2 in test [1] and in test [2] was 50 to 100% each time.

For the compound `C[C@H](CSCC(F)(F)F)NC(=O)c1ccc(/C=C/C(c2cc(Cl)c(Cl)c(Cl)c2)C(C)(F)F)cc1C(F)(F)F` (stereo partly drawn) [F108, 4-((E)-4,4-Difluoro-3-(3,4,5-trichlorophenyl)pent-1-en-1-yl)-N—((R)-1-((2,2,2-trifluoroethyl)thio)propan-2-yl)-2-(trifluoromethyl)benzamide], the mortality at 50 µg/cm2 in test [1] and in test [2] was 50 to 100% each time.

For the compound `C[C@H](CS(=O)(=O)CC(F)(F)F)NC(=O)c1ccc(/C=C/C(c2cc(Cl)c(Cl)c(Br)c2)C(F)(F)F)cc1C(F)(F)F` (stereo partly drawn) [F114, 4-((E)-3-(3-Bromo-4,5-dichlorophenyl)-4,4,4-trifluorobut-1-en-1-yl)-N—((R)-1-((2,2,2-trifluoroethyl)sulfonyl)propan-2-yl)-2-(trifluoromethyl)benzamide], the mortality at 50 µg/cm2 in test [1] and in test [2] was 50 to 100% throughout.

`C=Cc1cc(C(/C=C/c2ccc(C(=O)N[C@H](C)CS(=O)(=O)CC(F)(F)F)c(C(F)(F)F)c2)C(F)(F)F)cc(Cl)c1Cl` (stereo partly drawn) [F115, 4-((E)-3-(3,4-Dichloro-5-vinylphenyl)-4,4,4-trifluorobut-1-en-1-yl)-N—((R)-1-((2,2,2-trifluoroethyl)sulfonyl)propan-2-yl)-2-(trifluoromethyl)benzamide]: the mortality at 50 µg/cm2 in test [1] and in test [2] was 50 to 100% throughout.

As to `C[C@H](CSCC(F)(F)F)NC(=O)c1ccc(/C=C/C(c2cc(Cl)c(Cl)c(Br)c2)C(F)(F)F)cc1C(F)(F)F` (stereo partly drawn) [F116, 4-((E)-3-(3-Bromo-4,5-dichlorophenyl)-4,4,4-trifluorobut-1-en-1-yl)-N—((R)-1-((2,2,2-trifluoroethyl)thio)propan-2-yl)-2-(trifluoromethyl)benzamide], the mortality at 50 µg/cm2 in test [1] and in test [2] was 50 to 100% each time.

Consider `C[C@H](C[S+]([O-])CC(F)(F)F)NC(=O)c1ccc(/C=C/C(c2ccc(Cl)c(Cl)c2)C(F)(F)F)cc1Br` (stereo partly drawn) [F117, 2-Bromo-4-((E)-3-(3,4-dichlorophenyl)-4,4,4-trifluorobut-1-en-1-yl)-N-((2R)-1-((2,2,2-trifluoroethyl)sulfinyl)propan-2-yl)benzamide], for which the mortality at 50 µg/cm2 in test [1] and in test [2] was 50 to 100% in each case.

With `C[C@H](CS(=O)(=O)CC(F)(F)F)NC(=O)c1ccc(/C=C/C(c2cc(Br)cc(OCC(F)(F)F)c2)C(C)(F)F)cc1C(F)(F)F` (stereo partly drawn) [F120, 4-((E)-3-(3-Bromo-5-(2,2,2-trifluoroethoxy)phenyl)-4,4-difluoropent-1-en-1-yl)-N—((R)-1-((2,2,2-trifluoroethyl)sulfonyl)propan-2-yl)-2-(trifluoromethyl)benzamide], the mortality at 50 µg/cm2 in test [1] and in test [2] was 50 to 100% throughout.

For the compound `C[C@H](C[S+]([O-])CCF)NC(=O)c1ccc(/C=C/C(c2cc(Cl)c(Cl)c(Cl)c2)C(C)(F)F)cc1C(F)(F)F` (stereo partly drawn) [F121, 4-((E)-4,4-Difluoro-3-(3,4,5-trichlorophenyl)pent-1-en-1-yl)-N-((2R)-1-((2-fluoroethyl)sulfinyl)propan-2-yl)-2-(trifluoromethyl)benzamide], the mortality at 50 µg/cm2 in test [1] and in test [2] was 50 to 100% each time.

For `C[C@H](CS(=O)(=O)CCF)NC(=O)c1ccc(/C=C/C(c2cc(Cl)c(Cl)c(Cl)c2)C(C)(F)F)cc1C(F)(F)F` (stereo partly drawn) [F122, 4-((E)-4,4-Difluoro-3-(3,4,5-trichlorophenyl)pent-1-en-1-yl)-N—((R)-1-((2-fluoroethyl)sulfonyl)propan-2-yl)-2-(trifluoromethyl)benzamide], the mortality at 50 µg/cm2 in test [1] and in test [2] was 50 to 100% in each case.

As to `C[C@H](CS(=O)(=O)CC(F)(F)F)NC(=O)c1ccc(/C=C/C(c2ccc(C(F)(F)F)c(F)c2)C(C)(F)F)cc1C(F)(F)F` (stereo partly drawn) [F123, 4-((E)-4,4-Difluoro-3-(3-fluoro-4-(trifluoromethyl)phenyl)pent-1-en-1-yl)-N—((R)-1-((2,2,2-trifluoroethyl)sulfonyl)propan-2-yl)-2-(trifluoromethyl)benzamide], the mortality at 50 µg/cm2 in test [1] and in test [2] was 50 to 100% each time.

`C[C@H](CS(=O)(=O)CC(F)(F)F)NC(=O)c1ccc(/C=C/C(c2ccc(Cl)c(Cl)c2)C(F)(F)F)cc1Br` (stereo partly drawn) [F124, 2-Bromo-4-((E)-3-(3,4-dichlorophenyl)-4,4,4-trifluorobut-1-en-1-yl)-N—((R)-1-((2,2,2-trifluoroethyl)sulfonyl)propan-2-yl)benzamide]: the mortality at 50 µg/cm2 in test [1] and in test [2] was 50 to 100% throughout.

Consider `CC(F)(F)C(/C=C/c1ccc(C(=O)NCC[S+]([O-])CCF)c(C(F)(F)F)c1)c1cc(Cl)c(Cl)c(Cl)c1` (stereo not shown) [F129, (E)-4-(4,4-Difluoro-3-(3,4,5-trichlorophenyl)pent-1-en-1-yl)-N-(2-((2-fluoroethyl)sulfinyl)ethyl)-2-(trifluoromethyl)benzamide], for which the mortality at 50 µg/cm2 in test [1] and in test [2] was 50 to 100% each time.

`C[C@H](CS(=O)(=O)CC(F)(F)F)NC(=O)c1ccc(/C=C/C(c2cc(Cl)c(Cl)c(Cl)c2)C(C)(F)F)cc1Br` (stereo partly drawn) [F130, 2-bromo-4-((E)-4,4-difluoro-3-(3,4,5-trichlorophenyl)pent-1-en-1-yl)-N—((R)-1-((2,2,2-trifluoroethyl)sulfonyl)propan-2-yl)benzamide]: the mortality at 50 µg/cm2 in test [1] and in test [2] was 50 to 100% throughout.

Turning to `C[C@H](CS(=O)(=O)CC(F)(F)F)NC(=O)c1ccc(/C=C/C(c2cc(Cl)cc(Cl)c2)C(C)(F)F)cc1Br` (stereo partly drawn) [F133, 2-Bromo-4-((E)-3-(3,5-dichlorophenyl)-4,4-difluoropent-1-en-1-yl)-N—((R)-1-((2,2,2-trifluoroethyl)sulfonyl)propan-2-yl)benzamide], the mortality at 50 µg/cm2 in test [1] and in test [2] was 50 to 100% in each case.

With `C[C@H](CS(=O)(=O)CC(F)(F)F)NC(=O)c1ccc(/C=C/C(c2ccc(F)c(C(F)(F)F)c2)C(C)(F)F)cc1C(F)(F)F` (stereo partly drawn) [F135, 4-((E)-4,4-Difluoro-3-(4-fluoro-3-(trifluoromethyl)phenyl)pent-1-en-1-yl)-N—((R)-1-((2,2,2-trifluoroethyl)sulfonyl)propan-2-yl)-2-(trifluoromethyl)benzamide], the mortality at 50 µg/cm2 in test [1] and in test [2] was 50 to 100% each time.

Turning to `C[C@H](CS(=O)(=O)CC(F)(F)F)NC(=O)c1ccc(/C=C/C(c2cc(F)c(F)c(F)c2)C(C)(F)F)cc1C(F)(F)F` (stereo partly drawn) [F136, 4-((E)-4,4-Difluoro-3-(3,4,5-trifluorophenyl)pent-1-en-1-yl)-N—((R)-1-((2,2,2-trifluoroethyl)sulfonyl)propan-2-yl)-2-(trifluoromethyl)benzamide], the mortality at 50 µg/cm2 in test [1] and in test [2] was 50 to 100% throughout.

Values taken from patent US20170210723A1, “MOLECULES HAVING PESTICIDAL UTILITY, AND INTERMEDIATES, COMPOSITIONS, AND PROCESSES, RELATED THERETO” (priority 2016, published 2017).
